Data published in patent US20240148821A1, “PHARMACEUTICAL USE OF CYCLIC PEPTIDE COMPOUND” (CHUGAI SEIYAKU KABUSHIKI KAISHA, priority 2021, published 2024).
Numbered stars: 1 amine (or outer) side, 2 acyl side, 3 side chain; on linkers, the order of the positions; unused ones are H or OH. Bridge positions count the residues as written; N and C are the ends. Square brackets hold non-standard residues; d marks the D form. Peptide text beside a SMILES is read from it. * marks the point of attachment. hPhe(3-Cl-4-CF3) = N[C@@H](CCc1ccc(C(F)(F)F)c(Cl)c1)C(=O)O; hPhe(3-F,4-CF3) = N[C@@H](CCc1ccc(C(F)(F)F)c(F)c1)C(=O)O; hPhe(4-CF3) = N[C@@H](CCc1ccc(C(F)(F)F)cc1)C(=O)O; Pro(cis-4-Ph) = O=C(O)[C@@H]1C[C@H](c2ccccc2)CN1; NEtPhe(4-Me) = CCN[C@@H](Cc1ccc(C)cc1)C(=O)O; NMePhe(4-Cl) = CN[C@@H](Cc1ccc(Cl)cc1)C(=O)O; NMePhe(4-I) = CN[C@@H](Cc1ccc(I)cc1)C(=O)O; X83 = Cc1ccc(CC[C@H](N[*:1])C(=O)[*:2])cc1; NMedβ3hAla = C[C@H](CC(=O)[*:2])N(C)[*:1]; NMeGly(cBu) = CN[C@H](C(=O)O)C1CCC1; Gly(cPent) = N[C@H](C(=O)O)C1CCCC1; NMeCha = CN[C@@H](CC1CCCCC1)C(=O)O; Hyp = O=C(O)[C@@H]1C[C@@H](O)CN1; NMeChg = CN[C@H](C(=O)O)C1CCCCC1; NMeF = CN[C@@H](Cc1ccccc1)C(=O)O; NMeI = CC[C@H](C)[C@H](NC)C(=O)O; d(β3hL) = CC(C)C[C@@H](N)CC(=O)O; NMeD = CN[C@@H](CC(=O)O)C(=O)O; NMeHpra = C#CCC[C@H](NC)C(=O)O; NMeL = CN[C@@H](CC(C)C)C(=O)O; NMeV = CN[C@H](C(=O)O)C(C)C; d(β3hA) = C[C@@H](N)CC(=O)O; NMeA = CN[C@@H](C)C(=O)O; Piperidide = C1CCN(*)CC1; Ac5c = NC1(C(=O)O)CCCC1; Aze = O=C(O)[C@@H]1CCN1; Sar = CNCC(=O)O

What follows are molecules tested against protein-protein interaction between Kras and SOS1 (biotin-tagged human Kras loaded with GDP, His-tagged human SOS1) (Homo sapiens (Human), UniProt P01116, G12D) (assay: Protein-protein interaction inhibition between Kras and SOS1 (KrasG12D-SOS PPI) using AlphaScreen). Details: AlphaScreen; biotin-tagged human Kras loaded with GDP, His-tagged human SOS1; read-out: KRAS G12D-SOS PPI IC50.
Assay type: biochemical

SMILES	IC50 [nM]
CCO[C@@H]1C[C@H]2C(=O)NC3(CCCC3)C(=O)N(C)[C@@H]([C@@H](C)CC)C(=O)N(C)[C@H](C)CC(=O)N(C)[C@@H](CC(C)C)C(=O)N[C@@H]([C@@H](C)CC)C(=O)N(C)[C@@H](C)C(=O)N3CC[C@H]3C(=O)N(CC)[C@@H](Cc3ccc(C)cc3)C(=O)N(C)CC(=O)N[C@@H](CCc3ccc(C(F)(F)F)c(Cl)c3)C(=O)N2C1 [Compound 951] (cyclo([Ac5c][NMeI][NMedβ3hAla][NMeL]I[NMeA][Aze][NEtPhe(4-Me)][Sar][hPhe(3-Cl-4-CF3)][Hyp](Et)))	7.9
CC[C@H](C)[C@@H]1NC(=O)[C@H](CC(C)C)N(C)C(=O)C[C@@H](C)NC(=O)[C@H](C(C)C)N(C)C(=O)C2(CCCC2)NC(=O)[C@@H]2CCCN2C(=O)[C@H](CCc2ccc(C(F)(F)F)c(F)c2)NC(=O)CN(C)C(=O)[C@H](CC2CCCCC2)N(C)C(=O)[C@@H]2CCN2C(=O)[C@H](C)N(C)C1=O [Compound 952] (cyclo([Ac5c][NMeV][d(β3hA)][NMeL]I[NMeA][Aze][NMeCha][Sar][hPhe(3-F,4-CF3)]P))	120
CC[C@H](C)[C@@H]1NC(=O)[C@H](C2CCC2)N(C)C(=O)C[C@@H](C(=O)N2CCCCC2)N(C)C(=O)[C@H]([C@@H](C)CC)N(C)C(=O)C2(CCCC2)NC(=O)[C@@H]2CCCN2C(=O)[C@H](CCc2ccc(C(F)(F)F)c(Cl)c2)NC(=O)CN(C)C(=O)[C@H](CC2CCCCC2)N(C)C(=O)[C@@H]2CCN2C(=O)[C@H](C)N(C)C1=O [Compound 959] ([NMeGly(cBu)]I[NMeA][Aze][NMeCha][Sar][hPhe(3-Cl-4-CF3)]P[Ac5c][NMeI][NMeD]-Piperidide; lactam N-11)	1.4
CC[C@H](C)[C@@H]1NC(=O)[C@H](CC(C)C)N(C)C(=O)C[C@@H](C(=O)N2CCCCC2)N(C)C(=O)[C@H](C2CCCCC2)N(C)C(=O)C2(CCCC2)NC(=O)[C@@H]2C[C@H](c3ccccc3)CN2C(=O)[C@H](CCc2ccc(C(F)(F)F)c(Cl)c2)NC(=O)CN(C)C(=O)[C@H](CC2CCCCC2)N(C)C(=O)[C@@H]2CCN2C(=O)CN(C)C1=O [Compound 960] ([NMeL]I[Sar][Aze][NMeCha][Sar][hPhe(3-Cl-4-CF3)][Pro(cis-4-Ph)][Ac5c][NMeChg][NMeD]-Piperidide; lactam N-11)	7.9
C#CCC[C@H]1C(=O)N[C@@H]([C@@H](C)CC)C(=O)N(C)[C@@H](C)C(=O)N2CC[C@H]2C(=O)N(C)[C@@H](Cc2ccc(I)cc2)C(=O)N(C)CC(=O)N[C@@H](CCc2ccc(C(F)(F)F)c(Cl)c2)C(=O)N2CCC[C@H]2C(=O)NC2(CCCC2)C(=O)N(C)[C@@H](C2CCCCC2)C(=O)N(C)[C@H](C)CC(=O)N1C [Compound 961] (cyclo([Ac5c][NMeChg][NMedβ3hAla][NMeHpra]I[NMeA][Aze][NMePhe(4-I)][Sar][hPhe(3-Cl-4-CF3)]P))	12
CC(C)C[C@H]1C(=O)N[C@@H](C2CCCC2)C(=O)N(C)[C@@H](C)C(=O)N2CC[C@H]2C(=O)N(C)[C@@H](CC2CCCCC2)C(=O)N(C)CC(=O)N[C@@H](CCc2ccc(C(F)(F)F)c(Cl)c2)C(=O)N2CCC[C@H]2C(=O)NC2(CCCC2)C(=O)N(C)[C@@H](C(C)C)C(=O)N[C@H](C)CC(=O)N1C [Compound 966] (cyclo([Ac5c][NMeV][d(β3hA)][NMeL][Gly(cPent)][NMeA][Aze][NMeCha][Sar][hPhe(3-Cl-4-CF3)]P))	110
C#CCC[C@H]1C(=O)N[C@@H]([C@@H](C)CC)C(=O)N(C)[C@@H](C)C(=O)N2CC[C@H]2C(=O)N(C)[C@@H](Cc2ccc(I)cc2)C(=O)N(C)CC(=O)N[C@@H](CCc2ccc(C(F)(F)F)c(Cl)c2)C(=O)N2CCC[C@H]2C(=O)NC2(CCCC2)C(=O)N(C)[C@@H](C2CCCCC2)C(=O)N[C@H](C)CC(=O)N1C [Compound 971] (cyclo([Ac5c][NMeChg][d(β3hA)][NMeHpra]I[NMeA][Aze][NMePhe(4-I)][Sar][hPhe(3-Cl-4-CF3)]P))	16
CC[C@H](C)[C@@H]1NC(=O)[C@H](C)N(C)C(=O)C[C@@H](CC(C)C)NC(=O)[C@H](C(C)C)N(C)C(=O)[C@H](Cc2ccccc2)N(C)C(=O)[C@H](CC(C)C)N(C)C(=O)[C@H](CCc2ccc(C(F)(F)F)cc2)NC(=O)CN(C)C(=O)[C@H](Cc2ccc(Cl)cc2)N(C)C(=O)CN(C)C(=O)CN(C)C1=O [Compound 972] (cyclo(I[Sar][Sar][NMePhe(4-Cl)][Sar][hPhe(4-CF3)][NMeL][NMeF][NMeV][d(β3hL)][NMeA]))	330
CC[C@H](C)[C@@H]1NC(=O)[C@H](C)N(C)C(=O)C[C@@H](C(=O)N2CCCCC2)N(C)C(=O)[C@H](C(C)C)N(C)C(=O)C2(CCCC2)NC(=O)[C@@H]2CCCN2C(=O)[C@H](CCc2ccc(C)cc2)NC(=O)CN(C)C(=O)[C@H](CC2CCCCC2)N(C)C(=O)[C@@H]2CCN2C(=O)[C@H](C)N(C)C1=O [Compound 976] ([NMeA]I[NMeA][Aze][NMeCha][Sar][X83]P[Ac5c][NMeV][NMeD]-Piperidide; lactam N-11)	180
